Test results: patent US4104383A, “Derivatives of phenylpropenylamine” (C M Industries, priority 1973, dated 1978)
Converted amounts (≈) assume the structure as drawn. Where two headings read alike, the source gives them in different places. One block for each compound: values may come before it.

Assays:
[1] = system: dorsal hippocampus; assay: Electroencephalographic study, electrical stimulation of the dorsal hippocampus; type: in vivo, rabbit; settings: conscious rabbits, intravenous; 6 volts, 30 cycles per second, 5 seconds
Excerpt: Electroencephalographic study
(Schmitt H. and Schmitt H., "Therapie", 1966, 3, 675-684)
Electrical stimulation of the dorsal hippocampus (6 volts; 30 cycles per second; 5 seconds, extent: 1.5 milliseconds) causes electrical discharges in the rabbit which continue for several seconds after cessation of electrical stimulation. These discharges last from 15 to 19 seconds in a normal animal. When the rabbit is under the influence of an antidepressant drug, these discharges last much longer. The experiment was carried out on batches of six conscious rabbits implanted by the technique of Monnier M. and Gangloff H. ("Atlas of Stereotaxic brain research on the conscious rabbit", Elsevier 1961), the products being administered intraveneously. The discharges were increased by 60% when the rabbits were treated with compound 933 CB and by 20 % when the rabbits were treated with compound 994 CB.

[2] = system: central nervous system; assay: Traction test; type: in vivo; settings: mouse, read-out: Traction, median effective dose
Excerpt: (Courvoisier S., Ducrot R. and Julou L. "Psychotropic Drugs", Elsevier, 1957, p.373)
In this test, a mouse was hung by its front legs on a stretched wire. The animal will normally recover by itself, by gripping with its rear legs within 5 seconds.
(§1) The results obtained from the tests described above are summarized in Table II; the figures given in this Table show the value of the median effective dose for each test. The method of administration is indicated by "I.V." for intravenous administration, "I.P." for intraperitoneal administration and "P.O." for oral administration.

[3] = system: severely depressed hospital patients; assay: Clinical evaluation in severely depressed hospital patients; type: in vivo, human
Method: A clinical evaluation of 933 CB was carried out using a sample of […] severely depressed hospital patients who were considering suicide or in some cases had attempted it. The sample contained 13 cases of nervous depression, 10 cases of reactional depression, seven cases of psychotic depression and three cases of severe melancholia. A clear favourable action on the depressive […] occurred in 21 of the patients. Several cases where a favourable response was noted had previously been treated with tricyclic antidepressants without success. […] The daily dose of the compound administered to each patient varied from 20 to 200 mg, the most favourable results being obtained with a dose of 40 to 60 mg.

[4] = system: isolated rat duodenum; assay: Antispasmodic activity, barium chloride-induced spasms of isolated rat duodenum; settings: tyrode bath 37° C, barium chloride 100 μg/liter, compound added 3 minutes before, read-out: 50% effective concentration
Method: The antispasmodic activity of the compounds of the invention was also studied on the isolated rat duodenum, kept alive in an aerated tyrode bath at 37° C. Spasms were induced by the administration of barium chloride in an amount of 100 μg/liter. The compounds of the invention were added, at various concentrations, to the tyrode bath 3 minutes before the addition of the spasmogenic agent and the concentration determined of each which reduced by 50% the extent of the contraction caused by this agent.

[5] = Toxicity, LD50 in mice; settings: mouse, in vivo
Excerpt: The toxicity of the compounds of the invention is generally low, as may be seen from Table IV, which gives the LD50 in mg/kg in mice for some of the compounds of the invention.

[6] = system: adynamic and depressive states; assay: Clinical use in adynamic and depressive states; type: in vivo; settings: 2 to 10 compressed tablets of 100 mg daily or 1 to 5 injectible ampoules of 100 mg
Method: The compounds of the invention have been successfully used clinically to treat adynamic and depressive states, such as melancholia, reactive depressions and manic-depressive psychosis.
The compounds of the present invention are preferably formulated for oral administration or for injection. The compounds of the invention are also suitable for rectal administration. For oral administration, compressed tablets, each containing from 20 to 500 mg of active ingredient are recommended and for injection, ampoules each containing from 10 to 500 mg of active ingredient are recommended.

[7] = system: central nervous system; assay: Balancing test (rotating shaft); type: in vivo; settings: mouse, read-out: Balancing, median effective dose
Method: (Boissier J. R., Dumont C. and Ratouis R. "Therapie", 1960, 15, 1170)
In this test, mice were placed for 1 minute on a horizontal wooden shaft which rotated steadily at 12 r.p.m. The mice will normally counteract this movement using positional and balancing reflexes; if, however, the central nervous system is affected, these reflexes are disturbed and a certain number of animals fall off.
as §1

[8] = system: mouse; assay: Exploration test (plank with holes, anxiolytic activity); type: in vivo; settings: read-out: Exploration, median effective dose
Method: (Boissier J. R. and Simon P. "Archives Internationales de Pharmacodynamie",1964, 147, 372).
This test, using a plank with holes in it, makes it possible to measure objectively the anxiolytic activity of a compound by noting the decrease in the number of holes explored within a given time by a treated mouse in comparison with a control mouse. The animals are used in batches of 10 and are allowed 5 minutes for exploration.
as §1

[9] = system: mouse; assay: Activity test (spontaneous motility, photoelectric cell cage); type: in vivo; settings: read-out: Activity, median effective dose
Method: (Boissier J. R. and Simon P. "Archives Internationales de Pharmacodynamie",1965, 158, 212).
A mouse was placed in a Plexiglass cage crossed by a plurality of beams of light acting on photoelectric cells. When the mouse moved and thereby interrupted one of the beams, this caused an electrical pulse which was registered on a counter. The measurements were carried out on batches of six treated animals and six control animals for a period of 20 minutes.
as §1

[10] = system: mouse; assay: Reserpine test (reserpine-induced depression); type: in vivo; settings: reserpine 5 mg/kg subcutaneously, read-out: Reserpine, median effective dose
Method: (Rubin B., Malone M. H., Waugh M. H. and Burke J. C., "Journal of Pharmacology and Experimental Therapeutics", 1957, 120, 125)
Reserpine, administered subcutaneously to a mouse in a dose of 5 mg/kg body weight, causes symptoms of severe depression, with absolute fixity, ptosis of the eyelids, hypothermia and catatonia; the simultaneous administration of a substance having anti-depressive properties leads to the progressive total or partial disappearance of this depressed state.
as §1

[11] = 30 severely depressed hospital patients, 20 to 200 mg daily
[12] = po, orally, read-out: LD50 orally

Compound: CCN(CC)CC=Cc1ccc(C2CCCCC2)c(Cl)c1 [933 CB, 3-chloro-4-cyclohexyl-1-(3-diethylamino-propen-1-yl)-benzene]
Increase of hippocampal discharges [1]: 60%
ED50 ([2]; ip, I.P.): 50 mg/kg
ED50 ([2]; po, P.O.): 100 mg/kg
patients with a clear favourable action on the depressive thymine [3, 11]: 21 patients
patients with improvement noted in less than a week [3, 11]: 13 patients
rapidity of action (in words) ([3]; depressed patients): The action was rapid
EC50 [4]: 0.6 to 1 ng/mL (≈ 1.96 to 3.27 nM)
LD50 ([5]; ip, I.P., read-out: LD50 I.P.): 125 mg/kg
LD50 [5, 12]: > 1080 mg/kg
results on administration (in words) [6]: Good results were obtained
ED50 ([7]; ip, I.P.): 30 mg/kg
ED50 ([7]; po, P.O.): 50 mg/kg
ED50 ([8]; ip, I.P.): 25 mg/kg
ED50 ([8]; po, P.O.): 25 mg/kg
ED50 ([9]; ip, I.P.): 25 mg/kg
ED50 ([9]; po, P.O.): 100 mg/kg
ED50 ([10]; ip, I.P.): 75 mg/kg
ED50 ([10]; po, P.O.): 100 mg/kg

Compound: CCN(CC)CCCc1ccc(C2CCCCC2)c(Cl)c1 [934 CB, 3-Chloro-4-cyclohexyl-1-(3-diethylamino-propyl)-benzene]
EC50 [4]: 0.6 ng/mL (≈ 1.95 nM)
LD50 ([5]; ip, I.P., read-out: LD50 I.P.): 125 to 250 mg/kg
LD50 [5, 12]: > 750 mg/kg
ED50 ([7]; ip, I.P.): 12.5 mg/kg
ED50 ([8]; ip, I.P.): 20 mg/kg
ED50 ([9]; ip, I.P.): 30 mg/kg
ED50 ([10]; ip, I.P.): 50 mg/kg

EC50 [4]: 3 ng/mL (≈ 11.3 nM)
Compound: CCN(CC)CC=Cc1ccc(-c2ccccc2)cc1 [994 CB, 4-(3-diethylamino-propen-1-yl)-biphenyl]
Increase of hippocampal discharges [1]: 20%
ED50 ([2]; ip, I.P.): 100 mg/kg
ED50 ([7]; ip, I.P.): 50 mg/kg
ED50 ([8]; ip, I.P.): 50 mg/kg
ED50 ([8]; po, P.O.): 50 mg/kg
ED50 ([9]; ip, I.P.): 100 mg/kg
ED50 ([10]; ip, I.P.): 50 mg/kg
ED50 ([10]; po, P.O.): 50 mg/kg

EC50 [4]: 1 ng/mL (≈ 3.74 nM)
Compound: CCN(CC)CCCc1ccc(-c2ccccc2)cc1 [31001 CB, 4-(3-diethylamino-propyl)-biphenyl]
ED50 ([2]; ip, I.P.): 100 mg/kg
ED50 ([7]; ip, I.P.): 100 mg/kg
ED50 ([9]; ip, I.P.): 50 mg/kg

Compound: CN(C)CC=Cc1ccc(C2CCCCC2)c(Cl)c1 [31004 CB, 3-chloro-4-cyclohexyl-1-(3-dimethylamino-propen-1-yl)-benzene]
ED50 ([2]; ip, I.P.): > 100 mg/kg
EC50 [4]: 1 to 3 ng/mL (≈ 3.6 to 10.8 nM)
LD50 ([5]; ip, I.P., read-out: LD50 I.P.): 125 mg/kg
LD50 [5, 12]: > 750 mg/kg
ED50 ([7]; ip, I.P.): 100 mg/kg
ED50 ([8]; ip, I.P.): 60 mg/kg
ED50 ([9]; ip, I.P.): 12.5 mg/kg

Compound: CN(C)CCCc1ccc(C2CCCCC2)c(Cl)c1 [31012 CB, 3-Chloro-4-cyclohexyl-1-(3-dimethylamino-propyl)-benzene]
ED50 ([2]; ip, I.P.): 100 mg/kg
LD50 ([5]; ip, I.P., read-out: LD50 I.P.): 250 to 300 mg/kg
LD50 [5, 12]: > 750 mg/kg
ED50 ([7]; ip, I.P.): 100 mg/kg
ED50 ([8]; ip, I.P.): 50 mg/kg
ED50 ([9]; ip, I.P.): 50 mg/kg

Compound: Clc1cc(C=CCN2CCOCC2)ccc1C1CCCCC1 [31013 CB, 3-chloro-4-cyclohexyl-1-(3-morpholino-propen-1-yl)-benzene]
LD50 ([5]; ip, I.P., read-out: LD50 I.P.): 500 mg/kg
LD50 [5, 12]: > 750 mg/kg
ED50 ([8]; ip, I.P.): 50 mg/kg
ED50 ([9]; ip, I.P.): 50 mg/kg

Compound: Clc1cc(C=CCN2CCCC2)ccc1C1CCCCC1 [31015 CB, 3-Chloro-4-cyclohexyl-1-(3-pyrrolidino-propen-1-yl)-benzene]
ED50 ([2]; ip, I.P.): 50 mg/kg
EC50 [4]: 1 to 3 ng/mL (≈ 3.29 to 9.87 nM)
LD50 ([5]; ip, I.P., read-out: LD50 I.P.): 62.5 mg/kg
LD50 [5, 12]: > 750 mg/kg
ED50 ([7]; ip, I.P.): 50 mg/kg
ED50 ([8]; ip, I.P.): 25 mg/kg
ED50 ([9]; ip, I.P.): 20 mg/kg
ED50 ([10]; ip, I.P.): 50 mg/kg

Compound: Clc1cc(CCCN2CCCC2)ccc1C1CCCCC1 [31016 CB, 3-Chloro-4-cyclohexyl-1-(3-pyrrolidino-propyl)-benzene]
LD50 ([5]; ip, I.P., read-out: LD50 I.P.): 50 to 100 mg/kg
LD50 [5, 12]: > 750 mg/kg
ED50 ([8]; ip, I.P.): 20 mg/kg
ED50 ([9]; ip, I.P.): 12.5 mg/kg
ED50 ([10]; ip, I.P.): 50 mg/kg

Compound: CCN(CC)CC=Cc1ccc(C2CCCCC2)cc1 [31023 CB, 4-cyclohexyl-1-(3-diethylamino-propen-1-yl)-benzene]
ED50 ([2]; ip, I.P.): 25 mg/kg
ED50 ([7]; ip, I.P.): 30 mg/kg
ED50 ([9]; ip, I.P.): 25 mg/kg

Compound: CCN(CC)CC=Cc1ccc(C2CCCCC2)c(F)c1 [Compound 31030, 3-fluoro-4-cyclohexyl-1-(3-diethylamino-propen-1-yl)-benzene]
ED50 ([2]; ip, I.P.): 50 mg/kg
ED50 ([7]; ip, I.P.): 25 mg/kg
ED50 ([8]; ip, I.P.): ≥ 50 mg/kg
ED50 ([9]; ip, I.P.): 100 mg/kg
